In this assay the target is T1, Human PPARα (Homo sapiens, UniProt Q07869).
T1 construct: host or cells: proprietary non-human mammalian cells
T1 sequence (Q07869 1-468): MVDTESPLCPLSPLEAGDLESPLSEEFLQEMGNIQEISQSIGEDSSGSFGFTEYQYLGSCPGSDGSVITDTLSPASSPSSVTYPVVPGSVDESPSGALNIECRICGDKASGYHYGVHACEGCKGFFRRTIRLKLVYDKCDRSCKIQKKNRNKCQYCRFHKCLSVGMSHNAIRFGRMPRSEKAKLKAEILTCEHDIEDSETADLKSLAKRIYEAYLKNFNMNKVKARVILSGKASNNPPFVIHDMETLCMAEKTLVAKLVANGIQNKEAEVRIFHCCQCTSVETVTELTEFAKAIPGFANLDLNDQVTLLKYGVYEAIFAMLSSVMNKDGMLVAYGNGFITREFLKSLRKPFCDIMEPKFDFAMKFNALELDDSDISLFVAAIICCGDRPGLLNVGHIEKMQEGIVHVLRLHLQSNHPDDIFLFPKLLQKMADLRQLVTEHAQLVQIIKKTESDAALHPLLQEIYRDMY
Kind of assay: Human PPARα Reporter Assay (luciferase). The assay is classed as cell-based. To be noted: human PPARα reporter cells, overnight incubation, antagonism; read-out: Luciferase IC50. The gist of the method:
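Non-human mammalian cells constitutively expressing human PPARα with a PPARα-responsive luciferase reporter were dosed with compounds right after plating. After overnight incubation, media removed and detection reagent added; luminescence taken as proportional to PPARα activation, agonist or antagonist mode.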
For orientation: IC50 means the concentration at which inhibition is half-maximal. On to `CCn1c(CCCc2ccc(-c3cc(OC)c(NS(=O)(=O)c4ccccc4)cn3)cc2)nn(Cc2ccc(C(C)(C)C)cc2)c1=O` [Example 112, 1-{[4-(tert-Butyl)phenyl]methyl}-4-ethyl-3-[3-(4-{4-methoxy-5-[(phenylsulfonyl)amino](2-pyridyl)}phenyl)propyl]-1,2,4-triazolin-5-one], for which the IC50 was 816 nM.

`CCn1c(CCCc2ccc(-c3cc(NS(C)(=O)=O)ccn3)cc2)nn(Cc2ccc(C(C)(C)C)cc2)c1=O` [Example 40, 1-{[4-(tert-Butyl)phenyl]methyl}-4-ethyl-3-[3-(4-{4-[(methylsulfonyl)amino](2-pyridyl)}phenyl)propyl]-1,2,4-triazolin-5-one]: the half-inhibitory concentration (IC50) is 408 nM.

With `CCn1c(CCCc2ccc(-c3cccc(CC(=O)O)c3)cc2)nn(Cc2ccc(C3CCCCC3)cc2)c1=O` [Example 26, 2-(4′-(3-(1-(4-Cyclohexylbenzyl)-4-ethyl-5-oxo-4,5-dihydro-1H-1,2,4-triazol-3-yl)propyl)-[1,1′-biphenyl]-3-yl)acetic acid], the half-inhibitory concentration (IC50) came to 4110 nM.

Turning to `CCn1c(CCCc2ccc(-c3cccc(CCC(=O)O)c3)cc2)nn(Cc2ccc(C(C)(C)C)cc2)c1=O` [Example 36, 3-(4′-(3-(1-(4-(tert-Butyl)benzyl)-4-ethyl-5-oxo-4,5-dihydro-1H-1,2,4-triazol-3-yl)propyl)-[1,1′-biphenyl]-3-yl)propanoic acid], the IC50 amounted to 2760 nM.

On to `CCCc1ccc(S(=O)(=O)Nc2cccc(-c3ccc(CCCc4nn(Cc5ccc(C(C)(C)C)cc5)c(=O)n4CC)cc3)n2)cc1` [Example 72, 1-{[4-(tert-Butyl)phenyl]methyl}-4-ethyl-3-{3-[4-(6-{[(4-propylphenyl)sulfonyl]amino}(2-pyridyl))phenyl]propyl}-1,2,4-triazolin-5-one], for which the concentration for half-maximal inhibition (IC50) was 208 nM.

With `CCn1c(CCCc2ccc(-c3ccc(OCC4CC4)c(CC(=O)O)c3)cc2)nn(Cc2ccc(C(C)(C)C)cc2)c1=O` [Example 49, 2-(4′-(3-(1-(4-(tert-Butyl)benzyl)-4-ethyl-5-oxo-4,5-dihydro-1H-1,2,4-triazol-3-yl)propyl)-4-(cyclopropylmethoxy)-[1,1′-biphenyl]-3-yl)acetic acid], the concentration for half-maximal inhibition (IC50) stood at 69 nM.

Take `CCn1c(CCCc2ccc(-c3cccc(CNS(=O)(=O)c4ccccc4)c3)cc2)nn(Cc2ccc(C(C)(C)C)cc2)c1=O` [Example 177, 1-{[4-(tert-Butyl)phenyl]methyl}-4-ethyl-3-{3-[4-(3-{[(phenylsulfonyl)amino]methyl}phenyl)phenyl]propyl}-1,2,4-triazolin-5-one]: the IC50 is 419 nM.

For the molecule `CCn1c(CCCc2ccc(-c3ccc(CC(=O)O)nc3)cc2)nn(Cc2ccc(C(C)(C)C)cc2)c1=O` [Example 43, 2-(5-{4-[3-(1-{[4-(tert-Butyl)phenyl]methyl}-4-ethyl-5-oxo-1,2,4-triazolin-3-yl)propyl]phenyl}-2-pyridyl)acetic acid], the 50% inhibitory concentration (IC50) was determined as 898 nM.

`CCn1c(CCCc2ccc(-c3cccc(C(Cc4ccccc4)C(=O)O)c3)cc2)nn(Cc2ccc(C(C)(C)C)cc2)c1=O` (centres unmarked) [Example 47, 2-(3-{4-[3-(1-{[4-(tert-Butyl)phenyl]methyl}-4-ethyl-5-oxo(1,2,4-triazolin-3-yl))propyl]phenyl}phenyl)-3-phenylpropanoic acid]: the half-maximal inhibitory concentration (IC50) amounted to 685 nM.

On to `CCn1c(CCCc2ccc(-c3ccc(OC)c(NS(=O)(=O)c4ccc(OC)cc4)n3)cc2)nn(Cc2ccc(C(C)(C)C)cc2)c1=O` [Example 93, 1-{[4-(tert-Butyl)phenyl]methyl}-4-ethyl-3-{3-[4-(5-methoxy-6-{[(4-methoxyphenyl)sulfonyl]amino}(2-pyridyl))phenyl]propyl}-1,2,4-triazolin-5-one], for which the IC50 was determined as 3 nM.

Regarding `CCn1c(CCCc2ccc(-c3cccc(NC(=O)NCc4ccccc4)n3)cc2)nn(Cc2ccc(C(C)(C)C)cc2)c1=O` [Example 155, 1-Benzyl-3-(6-(4-(3-(1-(4-(tert-butyl)benzyl)-4-ethyl-5-oxo-4,5-dihydro-1H-1,2,4-triazol-3-yl)propyl)phenyl)pyridin-2yl)urea], the IC50 was 362 nM.

As for `CCn1c(CCCc2ccc(-c3ccc(NS(=O)(=O)c4ccc(OC)cc4)cn3)cc2)nn(Cc2ccc(C(C)(C)C)cc2)c1=O` [Example 91, 1-{[4-(tert-Butyl)phenyl]methyl}-4-ethyl-3-{3-[4-(5-{[(4-methoxyphenyl)sulfonyl]amino}(2-pyridyl))phenyl]propyl}-1,2,4-triazolin-5-one], the concentration for half-maximal inhibition (IC50) came out at 136 nM.

As for `CCn1c(CCCc2ccc(-c3cccc(NS(=O)(=O)Cc4ccccc4)n3)cc2)nn(Cc2ccc(C(C)(C)C)cc2)c1=O` [Example 78, 1-{[4-(tert-Butyl)phenyl]methyl}-4-ethyl-3-{3-[4-(6-{[benzylsulfonyl]amino}(2-pyridyl))phenyl]propyl}-1,2,4-triazolin-5-one], the IC50 is 37 nM.

As to `CCn1c(CCCc2ccc(-c3cccc(C(=O)O)c3)cc2)nn(Cc2ccc(C(C)(C)C)cc2)c1=O` [Example 2, 4′-(3-(1-(4-(tert-Butyl)benzyl)-4-ethyl-5-oxo-4,5-dihydro-1H-1,2,4-triazol-3-yl)propyl)-[1,1′-biphenyl]-3-carboxylic acid], the half-maximal inhibitory concentration (IC50) is 57 nM.

On to `CCn1c(CCCc2ccc(-c3ccc(OC)c(S(=O)(=O)Nc4ccccn4)c3)cc2)nn(Cc2ccc(C(C)(C)C)cc2)c1=O` [Example 123, 4′-(3-(1-(4-(tert-Butyl)benzyl)-4-ethyl-5-oxo-4,5-dihydro-1H-1,2,4-triazol-3-yl)propyl)-4-methoxy-N-(pyridin-2-yl)-[1,1′-biphenyl]-3-sulfonamide], for which the half-inhibitory concentration (IC50) is 186 nM.

With `CC(C)(C)c1ccc(Cn2nc(CCCc3ccc(-c4cccc(CC(=O)O)c4)cc3)n(CC3CC3)c2=O)cc1` [Example 53, 2-(4′-(3-(1-(4-(tert-Butyl)benzyl)-4-(cyclopropylmethyl)-5-oxo-4,5-dihydro-1H-1,2,4-triazol-3-yl)propyl)-[1,1′-biphenyl]-3-yl)acetic acid], the half-inhibitory concentration (IC50) was determined as 363 nM.

On to `CCn1c(CCCc2ccc(-c3cccc(C(F)(F)C(=O)O)c3)cc2)nn(Cc2ccc(C(C)(C)C)cc2)c1=O` [Example 28, 2-(4′-(3-(1-(4-(tert-Butyl)benzyl)-4-ethyl-5-oxo-4,5-dihydro-1H-1,2,4-triazol-3-yl)propyl)-[1,1′-biphenyl]-3-yl)-2,2-difluoroacetic acid], for which the IC50 was determined as 1980 nM.

`CCn1c(CCCc2ccc(-c3ccc(OC)c(N)c3)cc2)nn(Cc2ccc(C(C)(C)C)cc2)c1=O` [Example 147, 3-(3-(3′-Amino-4′-methoxy-[1,1′-biphenyl]-4-yl)propyl)-1-(4-(tert-butyl)benzyl)-4-ethyl-1H-1,2,4-triazol-5(4H)-one]: the IC50 came out at 85 nM.

In the case of `CCC(C(=O)O)c1cccc(-c2ccc(CCCc3nn(Cc4ccc(C(C)(C)C)cc4)c(=O)n3CC)cc2)c1` (centres unmarked) [Example 46, 2-(3-{4-[3-(1-{[4-(tert-Butyl)phenyl]methyl}-4-ethyl-5-oxo-1,2,4-triazolin-3-yl)propyl]phenyl}phenyl)butanoic acid], the IC50 was determined as 699 nM.

On to `CCn1c(CCCc2ccc(-c3cc(OC)c(N)cn3)cc2)nn(Cc2ccc(C(C)(C)C)cc2)c1=O` [Example 111, 3-{3-[4-(5-Amino-4-methoxy(2-pyridyl))phenyl]propyl}-1-{[4-(tert-butyl)phenyl]methyl}-4-ethyl-1,2,4-triazolin-5-one], for which the half-maximal inhibitory concentration (IC50) worked out at 641 nM.

Source of the values: patent US9505728B2, “Triazolone compounds and uses thereof” (INCEPTION 2, INC., priority 2012, dated 2016).
